Reference: ChEMBL document CHEMBL5143523, “Construction and activity evaluation of novel benzodioxane derivatives as dual-target antifungal inhibitors” (Eur J Med Chem, 2022)
In brackets after ≈: the same amount, converted by molar mass. Activity calls are given as the source filed them. The calls are words filed in the database; no cut-off is given here.

How the values were obtained:
Candida albicans [1] = assay: Antifungal activity against Candida albicans ATCC SC5314 assessed as change in lanosterol level at 4 ug/ml incubated for 48 hrs by LC-MS analysis (reference value: 3.7%); type: functional; conditions: dose 4 µg/ml
[2] = Toxicity in mouse infected with Candida albicans ATCC SC5314 assessed as pathological changes in spleen at 4 mg/kg, ip administered ever other day for 12 days by hematoxylin and eosin staining based histopathological analysis; type: organism-based; conditions: in vivo, 288 h, time 12 day
Squalene epoxidase ERG1 = target: T1, Squalene epoxidase ERG1 (Candida albicans, UniProt Q92206); assay: Inhibition of SE in Candida albicans ATCC SC5314 incubated for 30 mins using squalene as substrate in presence of NADPH by spectrophotometer analysis
T1 sequence (Q92206 whole entry): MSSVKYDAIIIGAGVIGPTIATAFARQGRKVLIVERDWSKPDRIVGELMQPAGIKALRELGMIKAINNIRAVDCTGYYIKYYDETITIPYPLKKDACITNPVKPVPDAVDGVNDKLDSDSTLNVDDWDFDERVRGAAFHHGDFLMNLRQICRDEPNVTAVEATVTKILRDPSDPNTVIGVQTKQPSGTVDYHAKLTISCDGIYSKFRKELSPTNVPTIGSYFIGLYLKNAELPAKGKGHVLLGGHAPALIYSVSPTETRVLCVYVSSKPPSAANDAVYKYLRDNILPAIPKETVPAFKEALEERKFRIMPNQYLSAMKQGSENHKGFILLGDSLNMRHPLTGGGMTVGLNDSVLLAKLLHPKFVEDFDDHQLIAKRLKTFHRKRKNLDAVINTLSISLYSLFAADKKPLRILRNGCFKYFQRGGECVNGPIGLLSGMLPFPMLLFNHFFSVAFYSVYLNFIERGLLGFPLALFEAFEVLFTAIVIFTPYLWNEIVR

Candida albicans [3] = assay: Induction of morphological changes in Candida albicans assessed as leakage of cellular contents at 4 ug/ml measured after 72 hrs by TEM analysis; type: functional, organism-based; conditions: dose 4.0 µg/ml
Candida albicans [4] = assay: Antifungal activity against fluconazole resistant Candida albicans strain 901 assessed as decrease in fungal cell density at 4 ug/ml by fluorescence microscopy; type: functional, organism-based; conditions: dose 4.0 µg/ml
[5] = Hepatotoxicity in mouse infected with Candida albicans ATCC SC5314 assessed as change in plasma AST level at 4 mg/kg, ip administered ever other day for 12 days; type: toxicity, organism-based; conditions: in vivo, 288 h, time 12 day
Pichia kudriavzevii = assay: Antifungal activity against Candida krusei ATCC 6258 assessed as fungal growth inhibition measured after 72 hrs by CLSI protocol based liquid medium dilution method; type: functional
Candida albicans [6] = assay: Antifungal activity against fluconazole resistant Candida albicans strain 901 assessed as fungal growth inhibition measured after 72 hrs by CLSI protocol based liquid medium dilution method; type: functional
[7] = Toxicity in mouse infected with Candida albicans ATCC SC5314 assessed as pathological changes in heart at 4 mg/kg, ip administered ever other day for 12 days by hematoxylin and eosin staining based histopathological analysis; type: organism-based; conditions: in vivo, 288 h, time 12 day

## CC(C)[C@H](NC(=O)c1cccc2c1OCCO2)C(=O)N[C@@H](Cn1cncn1)c1ccccc1
Candida albicans [1]
  Activity: 16.4%
[2]
  Activity: Non-Toxic
Squalene epoxidase ERG1
  IC50: 621 nM
Candida albicans [3]
  Activity: Active
Candida albicans [4]
  Activity: Active
[5]
  Activity: 85.5 IU/L
Pichia kudriavzevii
  MIC50: 0.25 µg/mL (≈ 0.556 µM)
Candida albicans [6]
  MIC50: 1 µg/mL (≈ 2.22 µM)
[7]
  Activity: Non-Toxic
